# Measurements from patent US20100297256A1, “METHODS AND COMPOSITIONS FOR INHIBITING INTEGRINS USING TELLURIUM-CONTAINING COMPOUNDS” (priority 2007, published 2010).
# Columns and labels:
# [1] = tested on: leukemic cells from AML patients; assay: Sensitization of leukemic cells from AML patients to chemotherapy; assay type: cell-based, human
# Protocol: (§1) 2×10^4 per 200 μl cells were seeded in 96-microwell flat bottom plates. After 24 hours, the tested compound(s) (e.g., AS101, ARA-C, DTNB, anti-VLA-4 antibody) was added, and the cells were incubated overnight with the tested compound(s). The XTT solution was then added and the cells were incubated for 4 hours at 37° C. Cell viability was than evaluated by measuring absorbance at 450 nm using a Microplate Spectrophotometer (Spectra MAX Plus, Molecular Devices).
# Bone marrow samples from patients diagnosed, with AML, but not yet treated, were obtained and grown in vitro. The leukemic cells obtained therefrom were tested for levels of VLA-4 and VLA-5 via fluorescence based cytometry, using FITC (fluorescein isothiocyanate)-conjugated anti-VLA-4 and anti-VLA-5 antibodies, using standard procedures. The cells were grown on both fibronectin and BSA, and the effect of AS101 on chemotherapy resistance was measured.
# [2] = tested on: Bcl2; assay: Western blot analysis of Bcl2; assay type: cell-based, human; settings: AS101 added to ARA-C
# Description: The expression of the survival factor Bcl2 was examined via Western blot analysis in U937 cells treated with the chemotherapeutic agent ARA-C.
# [3] = tested on: West Nile Virus (WNV); assay: Cell-free virus assay; assay type: cell-based; settings: Vero cells, 5 and 10 μg/ml 1 hour before infection, 1 hour after adsorption
# Protocol: Cells were plated 20 hours before virus infection in 6-well plates at a density of 2×10^5 cells/plate, and treated with AS101 (1-10 μg/ml) for 1 hour or for 5-10 minutes before WNV infection. The cells were infected at MOI=5 PFU/cell and incubated for 1 hour at 37° C., 5% CO2. Supernatants were collected immediately following the incubation, and the concentration of the virus which remained cell-free in the culture supernatant was measured by viral plaque assay, as described above.
# [4] = tested on: U937 cells; assay: AML chemotherapy resistance assay (XTT cell viability), U937; assay type: cell-based, human
# Protocol: (§2) Cell viability was determined using a cell proliferation kit (Roche), which colors viable cells using the tetrazolium salt XTT.
# as §1
# The role of VLA protein in fibronectin-induced resistance to chemotherapy was investigated by performing a chemotherapy resistance assay, as described hereinabove, with anti-VLA-4 and anti-VLA-5 antibodies. U937 cells were grown in fibronectin- and BSA-coated plates. Antibodies were added at a concentration of 1 μg/ml.
# [5] = tested on: αVβ3 integrin; assay: Anti-αVβ3 integrin antibody binding assay; assay type: cell-based
# Protocol: An anti-αVβ3 integrin mediated cell adhesion kit (Millipore [Chemicon], Temecula, Calif.) was used to determine cells attachment to anti-αVβ3 integrin antibody, in the presence or absence of AS101. Briefly, Vero or BGM cells were mixed with PBS or with AS101 (1-10 μg/ml) and were added to anti-αVβ3 integrin coated 96-well plates, and to a control 96-well plate (containing anti-mouse IgG) in triplicate. The plates were incubated at 37° C., 5% CO2, for 2 hours, and the cells were then stained and extracted according to the kit instructions, using the staining solution and extraction buffer supplied with the kit. Cell concentration was measured by a spectrophotometer at 540 nm.
# [6] = tested on: HL-60 cells; assay: AML chemotherapy resistance assay (XTT cell viability), HL-60; assay type: cell-based, human
# Protocol: as §2, §1
# [7] = molecular target: T1, αVβ3 integrin (Homo sapiens, UniProt P05106+P06756); assay: Integrin-WNV attachment assay; assay type: binding; settings: purified integrin 75 ng/well
# T1 construct: purchased Chemicon
# T1 sequence (P06756 31-889 limits assumed): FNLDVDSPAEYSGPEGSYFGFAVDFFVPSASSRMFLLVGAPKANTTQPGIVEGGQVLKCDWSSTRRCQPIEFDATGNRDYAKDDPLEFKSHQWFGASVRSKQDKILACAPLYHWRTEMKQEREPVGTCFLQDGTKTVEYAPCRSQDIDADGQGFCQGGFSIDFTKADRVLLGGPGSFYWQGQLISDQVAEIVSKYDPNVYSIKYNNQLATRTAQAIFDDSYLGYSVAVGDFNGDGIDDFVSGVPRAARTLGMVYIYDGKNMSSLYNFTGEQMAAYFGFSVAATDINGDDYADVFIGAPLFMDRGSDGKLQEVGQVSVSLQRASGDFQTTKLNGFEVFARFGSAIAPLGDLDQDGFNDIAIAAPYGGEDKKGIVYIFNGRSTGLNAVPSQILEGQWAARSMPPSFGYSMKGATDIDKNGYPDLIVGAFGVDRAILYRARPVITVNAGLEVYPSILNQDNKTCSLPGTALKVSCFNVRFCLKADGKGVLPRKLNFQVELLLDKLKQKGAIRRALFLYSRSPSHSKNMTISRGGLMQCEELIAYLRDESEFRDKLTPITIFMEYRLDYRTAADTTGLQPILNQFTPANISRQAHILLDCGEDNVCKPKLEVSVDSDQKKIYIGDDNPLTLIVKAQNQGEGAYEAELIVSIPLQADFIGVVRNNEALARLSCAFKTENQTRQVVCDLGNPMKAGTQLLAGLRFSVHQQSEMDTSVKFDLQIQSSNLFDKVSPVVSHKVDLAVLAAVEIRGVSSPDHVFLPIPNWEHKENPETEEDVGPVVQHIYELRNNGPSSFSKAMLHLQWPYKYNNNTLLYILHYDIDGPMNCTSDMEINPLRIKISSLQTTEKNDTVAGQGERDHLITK
# T1 sequence (P06756 891-1048 limits assumed): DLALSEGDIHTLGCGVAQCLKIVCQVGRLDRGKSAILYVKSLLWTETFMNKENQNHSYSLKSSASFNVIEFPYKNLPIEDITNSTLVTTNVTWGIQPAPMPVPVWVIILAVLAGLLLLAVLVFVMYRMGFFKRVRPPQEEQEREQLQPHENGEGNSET
# T1 sequence (P05106 27-788): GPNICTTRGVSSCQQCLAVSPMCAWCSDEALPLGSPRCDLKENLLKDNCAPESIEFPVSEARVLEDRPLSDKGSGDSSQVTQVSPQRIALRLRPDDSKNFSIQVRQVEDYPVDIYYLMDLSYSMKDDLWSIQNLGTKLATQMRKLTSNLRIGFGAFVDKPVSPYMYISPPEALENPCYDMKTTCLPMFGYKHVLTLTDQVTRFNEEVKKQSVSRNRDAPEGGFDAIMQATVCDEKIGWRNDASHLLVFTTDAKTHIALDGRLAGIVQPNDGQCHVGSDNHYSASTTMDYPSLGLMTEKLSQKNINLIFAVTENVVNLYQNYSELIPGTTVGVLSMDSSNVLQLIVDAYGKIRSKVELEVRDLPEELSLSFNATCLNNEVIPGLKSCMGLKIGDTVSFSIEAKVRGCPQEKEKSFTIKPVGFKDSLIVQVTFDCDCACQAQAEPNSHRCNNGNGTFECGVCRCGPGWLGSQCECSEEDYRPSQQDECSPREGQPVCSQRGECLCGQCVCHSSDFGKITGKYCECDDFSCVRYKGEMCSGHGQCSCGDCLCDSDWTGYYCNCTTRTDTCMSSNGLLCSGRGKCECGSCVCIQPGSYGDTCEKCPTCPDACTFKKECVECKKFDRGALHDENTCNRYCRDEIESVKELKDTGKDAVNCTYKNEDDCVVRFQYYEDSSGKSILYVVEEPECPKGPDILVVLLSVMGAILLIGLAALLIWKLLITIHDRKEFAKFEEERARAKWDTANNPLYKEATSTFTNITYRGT
# Protocol: A solid-phase binding assay was performed according to a method previously described by Sharma et al [Virology, 239:150, 1997]. WNV was diluted in 50 mM carbonate-bicarbonate buffer, pH 9.6, to a concentration of 10^6 PFU/ml, and 100 μl aliquots were added to the wells of 96-well Nunc-Maxisorp ELISA plates. The plates were incubated overnight at 4° C., washed three times with washing buffer (20 mM Tris-HCL [pH 7.5], 150 mM NaCl), and then blocked for 2 hours at room temperature with […] of blocking buffer containing 20 mM Tris-HCL, pH 7.5, 150 mM NaCl, 5% Bovine serum albumin (BSA). The wells were then washed again, and purified αVβ3 integrin (75 ng/well), diluted in binding buffer (20 mM Tris-HCL, pH 7.5, 150 mM NaCl, 5% BSA, 2 mM CaCl2, 1 mM MgCl2) containing various concentrations of AS101, was added to the wells. After 2 hours of incubation at 37° C., the wells were washed three times with washing buffer. Bound integrin was detected with mouse monoclonal anti-human αVβ3 integrin antibody (Millipore [Chemicon]) diluted 1:1000 in 100 μl binding buffer. Incubation continued for 1 hour at 37 C, and then the wells were washed again. […] Colour development was stopped by the addition of 1 N H2SO4, and plates were read in a spectrophotometer at 492 nm.
# [8] = HL-60, fibronectin-coated plates, 0.5 or 1 μg/ml AS101
structure (smiles),measurement,setting,value
"Cl[TeH]1(Cl)(Cl)OCCO1 [AS101, ammonium trichloro(dioxyethylene-O,O′)tellurate]",inhibition of resistance to ARA-C,"[1]; 8 AML patients with high VLA-4 levels, on fibronectin, 0.5 or 1 μg/ml AS101",inhibited the resistance to ARA-C of high-VLA-4 cells on fibronectin in a dose-dependent manner
same,inhibition of resistance to ARA-C,"[1]; Patient B, high VLA-4, on fibronectin",inhibited the resistance to ARA-C of high-VLA-4 cells on fibronectin in a dose-dependent manner
same,"sensitization to ARA-C, combination of AS101 and DTNB vs either alone",[1]; high-VLA-4 cells on fibronectin,did not sensitize high-VLA-4 cells grown on fibronectin to a greater degree than did either AS101 or DTNB alone
same,"effect on viability of cells exposed to ARA-C, alone or in combination","[1]; low VLA-4 leukemic cells, fibronectin-coated plates",no effect either alone or in combination
same,expression of Bcl2,[2]; U937 on BSA,no effect
same,expression of Bcl2,[2]; U937 on fibronectin,did not decrease expression of Bcl2 in cells plated on fibronectin (FN) unless AS101 was added
same,WNV infectious units in culture supernatant relative to untreated cells,[3],approximately twice
same,effect on viability of cells exposed to ARA-C,"[4]; U937, BSA-coated plates",neither AS101 nor anti-VLA-4 antibodies had an effect
same,additional sensitization to ARA-C in cells sensitized by anti-VLA-4 antibodies,"[4]; U937, fibronectin-coated plates",no additional effect
same,sensitization to ARA-C-induced cell death,"[4]; U937, fibronectin-coated plates, 0.5 or 1 μg/ml AS101",sensitized U937 cells to ARA-C-induced cell death on fibronectin-coated plates
same,"effect on viability of cells exposed to ARA-C, alone or in combination",[4]; U937 on BSA,no effect either alone or in combination
same,"sensitization to ARA-C, combination of AS101 and DTNB vs either alone",[4]; U937 on fibronectin,did not sensitize U937 cells grown on fibronectin to a greater degree than did either AS101 or DTNB alone
same,inhibition of binding of anti-αVβ3 integrin antibody to cells,"[5]; BGM cells, 10 μg/ml, data not shown",64%
same,binding of anti-αVβ3 integrin antibody to cells,"[5]; Vero cells, 1-10 μg/ml",inhibited the binding of anti-αVβ3 integrin antibody to Vero cells in a dose-dependent manner
same,sensitization to daunorubicin-induced cell death,"[6]; HL-60, BSA-coated or VCAM-1-coated plates",no visible effect
same,sensitization to ARA-C-induced cell death,[6]; [8],sensitized HL-60 cells to ARA-C-induced cell death on fibronectin-coated plates
same,sensitization to daunorubicin-induced cell death,[6]; [8],sensitized HL-60 cells to daunorubicin-induced cell death on fibronectin-coated plates in a dose-dependent manner
same,attachment of αVβ3 integrin to immobilized WNV,[7],directly inhibited the attachment of αVβ3 integrin to WNV in a dose dependent manner
